Experiments:
PC-3 cells = test: Cell Proliferation Assay (Cell Titer Glo), PC-3 cell line; assay type: cell-based; conditions: Homo sapiens, PC-3, 72 h, PC-3 cells, 3 days incubation; read-out: CP EC50 PC3
Procedure, shortened: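 Cell Titer Glo luminescence, read after fresh medium replaced the dosing medium, gave viability of PC-3 cells plated at 1000 cells/well. Compounds, 1:3 serially diluted in DMSO at 500× and then in medium, were added after 3-5 h adhesion and incubated 3 days at 37° C.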

[1] = system: pAkt308 (phosphorylation of Akt at T308) in PC-3 cells; test: pAkt T308 ECL Assay in PC-3 cells; assay type: cell-based; conditions: Homo sapiens, 6 h, six hours with compound, read-out: PAKT308 PC3 IC50
Procedure: VI. The pAkt^T308 ECL Assay Protocol
On Day 1, PC-3 cells were seeded at 15,000 cells/well in 100 μL/well ([…]) growth media into black-walled, clear bottom, poly-L-lysine coated plates. The cells were incubated overnight in a 37° C., 5% CO2 incubator.
On Day 2, a MSD ECL plate was blocked for two hours with 150 μL per well of 3% MSD blocker A.
Test compounds were diluted to 500× in DMSO and then were subjected to further serial dilution using a BioMek 2000 instrument. DMSO diluted compounds were then diluted into growth media and then added to the cell plates.
The cell plates incubated with compounds for six hours in a 37° C., 5% CO2 incubator after which the growth medium was removed and 55 μl of MSD lysis buffer was added to cell plates on ice. The plates were lysed on ice for five minutes followed by 15 minutes of vigorous shaking on a plate shaker at 4° C. The blocked MSD assay plates were washed twice with 1×MSD wash buffer followed by the addition of cell lysate as follows: 30 μl of cell lysate was added to the pAkt308 plates and 13 μl of lysate+12 μl lysis buffer was added to the tAkt plates. The plates were then sealed and shaken at 4° C. overnight.
On Day 3, the MSD plates were washed four times with 1×MSD wash buffer then, 25 μl/well of MSD SULFO-TAG antibodies diluted to 10 nM final concentration in 1% blocker. A buffer was added to the antibody diluent which was added to assay plates. The plates were then sealed and incubated at RT for 1.5 hour. The plates were then washed twice with 1×MSD wash buffer followed by the addition of 150 μl/well of 1.5×MSD read buffer. The plates were read immediately after the addition of read buffer using a Trilux instrument. […]

A2780 cells = test: Cell Proliferation Assay (Cell Titer Glo), A2780; assay type: cell-based; conditions: Homo sapiens, 72 h; A2780 cells, 3 days incubation; read-out: CPEC50 A2780
Procedure, shortened: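 Following a 3-day compound exposure (37° C., 5% CO2) of A2780 or PC3MM cells plated at 1000 per well, viability was measured by Cell Titer Glo luminescence in fresh medium, read 10 min after reagent addition.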

PDK1 kinase = target: T1, PDK1 kinase (Homo sapiens, UniProt O15530); test: PDK1 Kinase Alpha Screen Assay; assay type: biochemical; conditions: read-out: PDK1 IC50
T1 sequence (O15530 1-556): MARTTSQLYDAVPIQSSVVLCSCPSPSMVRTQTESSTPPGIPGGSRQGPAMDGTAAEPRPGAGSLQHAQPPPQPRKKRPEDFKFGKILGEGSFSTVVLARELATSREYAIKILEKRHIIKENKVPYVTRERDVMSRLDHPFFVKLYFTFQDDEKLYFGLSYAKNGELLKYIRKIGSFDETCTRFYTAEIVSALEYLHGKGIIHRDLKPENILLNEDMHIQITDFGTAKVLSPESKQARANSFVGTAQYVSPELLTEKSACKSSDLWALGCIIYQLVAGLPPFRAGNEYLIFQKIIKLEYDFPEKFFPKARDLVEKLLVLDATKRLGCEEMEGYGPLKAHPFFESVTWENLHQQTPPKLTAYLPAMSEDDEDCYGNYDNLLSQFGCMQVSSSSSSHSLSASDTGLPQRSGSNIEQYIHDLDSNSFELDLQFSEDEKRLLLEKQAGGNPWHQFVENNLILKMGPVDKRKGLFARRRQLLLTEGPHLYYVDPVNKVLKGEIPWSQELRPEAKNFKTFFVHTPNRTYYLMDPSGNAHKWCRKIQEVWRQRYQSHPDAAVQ
Procedure, shortened: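 Kinase inhibition measured as loss of AlphaScreen signal from antibody recognition of phosphorylated biotin-PDK1-4 peptide. Reactions contain 10 uM ATP and 50 nM peptide, run 3-18 hours before EDTA quench and overnight bead development at room temperature.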

`NS(=O)(=O)c1ccc(Nc2ncc3cc(Br)cc(OC4CCNCC4)c3n2)cc1` [Compound 1, 4-[6-Bromo-8-(piperidin-4-yloxy)-quinazolin-2-ylamino]-benzenesulfonamide] gave an EC50 (PC-3 cells) of less than 5 µM, an IC50 [1] of 5 to 10 µM and an EC50 (A2780 cells) of less than 5 µM. It also gave an IC50 (PDK1 kinase) of less than 5 µM.
`NS(=O)(=O)c1ccc(Nc2ncc3cc(Br)cc(OC4CN5CCC4CC5)c3n2)cc1` (stereo not drawn) [Compound 2, 4-[8-(1-Aza-bicyclo[2.2.2]oct-3-yloxy)-6-bromo-quinazolin-2-yl-amino]-benzenesulfonamide] gave an EC50 (PC-3 cells) of less than 5 µM, an IC50 [1] of less than 5 µM and an EC50 (A2780 cells) of less than 5 µM. For the same compound, the IC50 (PDK1 kinase) was less than 5 µM.
`O=S(=O)(c1ccc(Nc2ncc3cccc(OC4CCNCC4)c3n2)cc1)N1CCOCC1` [Compound 3, [4-(Morpholine-4-sulfonyl)-phenyl]-[8-(piperidin-4-yloxy)-quinazolin-2-yl]-amine] was tested, and the EC50 (PC-3 cells) was less than 5 µM, the IC50 [1] was less than 5 µM and the EC50 (A2780 cells) was less than 5 µM. It also gave an IC50 (PDK1 kinase) of less than 5 µM.
With `CC(C)N1CCC(Oc2cccc3cnc(Nc4ccc(S(=O)(=O)N5CCOCC5)cc4)nc23)CC1` [Compound 4, [8-(1-Isopropyl-piperidin-4-yloxy)-quinazolin-2-yl]-[4-(morpholine-4-sulfonyl)-phenyl]-amine] the EC50 (PC-3 cells) was less than 5 µM, the IC50 [1] was less than 5 µM and the EC50 (A2780 cells) was less than 5 µM. For the same compound, the IC50 (PDK1 kinase) was less than 5 µM.
For `CC(C)NS(=O)(=O)c1ccc(Nc2ncc3cccc(OC4CCNCC4)c3n2)cc1` [Compound 11, N-Isopropyl-4-[8-(piperidin-4-yloxy)-quinazolin-2-ylamino]-benzenesulfonamide], the EC50 (PC-3 cells) was less than 5 µM, the IC50 [1] was less than 5 µM and the EC50 (A2780 cells) was less than 5 µM. It also gave an IC50 (PDK1 kinase) of less than 5 µM.
Work on `COCCNS(=O)(=O)c1ccc(Nc2ncc3cccc(OC4CCNCC4)c3n2)cc1` [Compound 12, N-(2-Methoxy-ethyl)-4-[8-(piperidin-4-yloxy)-quinazolin-2-ylamino]-benzenesulfonamide] yielded an EC50 (PC-3 cells) of less than 5 µM, an IC50 [1] of less than 5 µM and an EC50 (A2780 cells) of less than 5 µM. The IC50 (PDK1 kinase) was less than 5 µM.
Compound `O=S(=O)(NC1CC1)c1ccc(Nc2ncc3cccc(OC4CCNCC4)c3n2)cc1` [Compound 13, N-Cyclopropyl-4-[8-(piperidin-4-yloxy)-quinazolin-2-ylamino]-benzenesulfonamide] has an EC50 (PC-3 cells) of less than 5 µM, an IC50 [1] of less than 5 µM and an EC50 (A2780 cells) of less than 5 µM. For the same compound, the IC50 (PDK1 kinase) was less than 5 µM.
`O=S(=O)(NCCN1CCCC1)c1ccc(Nc2ncc3cccc(OC4CCNCC4)c3n2)cc1` [Compound 14, 4-[8-(Piperidin-4-yl-oxy)-quinazolin-2-ylamino]-N-(2-pyrrolidin-1-yl-ethyl)-benzenesulfonamide] gave an EC50 (PC-3 cells) of less than 5 µM, an IC50 [1] of 5 to 10 µM and an EC50 (A2780 cells) of less than 5 µM. For the same compound, the IC50 (PDK1 kinase) was less than 5 µM.
Work on `NS(=O)(=O)c1ccc(Nc2ncc3cccc(OC4CCNCC4)c3n2)cc1` [Compound 31, 4-[8-(Piperidin-4-yloxy)-quinazolin-2-ylamino]-benzenesulfonamide] yielded an EC50 (PC-3 cells) of less than 5 µM, an IC50 [1] of less than 5 µM and an EC50 (A2780 cells) of less than 5 µM. For the same compound, the IC50 (PDK1 kinase) was less than 5 µM.
Compound `CC(C)N1CCC(Oc2cccc3cnc(Nc4ccc(S(N)(=O)=O)cc4)nc23)CC1` [Compound 36, 4-[8-(1-Isopropyl-piperidin-4-yloxy)-quinazolin-2-ylamino]-benzenesulfonamide] has an EC50 (PC-3 cells) of less than 5 µM, an IC50 [1] of less than 5 µM and an EC50 (A2780 cells) of less than 5 µM. It also gave an IC50 (PDK1 kinase) of less than 5 µM.
`NS(=O)(=O)c1ccc(Nc2ncc3cccc(O[C@@H]4CN5CCC4CC5)c3n2)cc1` [Compound 40, 4-[8-((S)-3-quinuclidinyloxy)-quinazolin-2-ylamino]-benzenesulfonamide] was tested, and the EC50 (PC-3 cells) was less than 5 µM, the IC50 [1] was less than 5 µM and the EC50 (A2780 cells) was less than 5 µM. For the same compound, the IC50 (PDK1 kinase) was less than 5 µM.
Compound `CN1C2CCC1CC(Oc1cccc3cnc(Nc4ccc(S(N)(=O)=O)cc4)nc13)C2` (stereo not drawn) [Compound 41, 4-[8-(8-Methyl-8-aza-bicyclo[3.2.1]oct-3-yloxy)-quinazolin-2-ylamino]-benzenesulfonamide] has an EC50 (PC-3 cells) of less than 5 µM, an IC50 [1] of less than 5 µM and an EC50 (A2780 cells) of less than 5 µM. It also gave an IC50 (PDK1 kinase) of less than 5 µM.
`CC(C)N1CCC(Oc2ccc3cnc(Nc4ccc(S(N)(=O)=O)cc4)nc3c2)CC1` [Compound 42, 4-[7-(l-Isopropyl-piperidin-4-yloxy)-quinazolin-2-ylamino]-benzenesulfonamide] gave an EC50 (PC-3 cells) of less than 5 µM, an IC50 [1] of less than 5 µM and an EC50 (A2780 cells) of less than 5 µM. For the same compound, the IC50 (PDK1 kinase) was less than 5 µM.
For `CC(C)NC(=O)c1ccc(Nc2ncc3cccc(OC4CCN(C(C)C)CC4)c3n2)cc1` [Compound 44, N-Isopropyl-4-[8-(1-isopropyl-piperidin-4-yloxy)-quinazolin-2-ylamino]-benzamide], the EC50 (PC-3 cells) was less than 5 µM, the IC50 [1] was less than 5 µM and the EC50 (A2780 cells) was less than 5 µM. It also gave an IC50 (PDK1 kinase) of less than 5 µM.
For `CC(C)CN1CCC(Oc2cccc3cnc(Nc4ccc(S(N)(=O)=O)cc4)nc23)CC1` [Compound 45, 4-[8-(1-Isobutyl-piperidin-4-yloxy)-quinazolin-2-ylamino]-benzenesulfonamide], the EC50 (PC-3 cells) was less than 5 µM, the IC50 [1] was less than 5 µM and the EC50 (A2780 cells) was less than 5 µM. For the same compound, the IC50 (PDK1 kinase) was less than 5 µM.
`NS(=O)(=O)c1ccc(Nc2ncc3ccc(OC4CCNCC4)cc3n2)cc1` [Compound 51, 4-[7-(Piperidin-4-yloxy)-quinazolin-2-ylamino]-benzenesulfonamide] gave an EC50 (PC-3 cells) of less than 5 µM, an IC50 [1] of less than 5 µM and an EC50 (A2780 cells) of less than 5 µM. The IC50 (PDK1 kinase) was less than 5 µM.
`CN1CCC(Oc2ccc3cnc(Nc4ccc(S(=O)(=O)N5CCOCC5)cc4)nc3c2)CC1` [Compound 53, [7-(1-Methyl-piperidin-4-yloxy)-quinazolin-2-yl]-[4-(morpholine-4-sulfonyl)-phenyl]-amine] showed an EC50 (PC-3 cells) of less than 5 µM, an IC50 [1] of less than 5 µM and an EC50 (A2780 cells) of less than 5 µM. The IC50 (PDK1 kinase) was less than 5 µM.
With `NS(=O)(=O)c1ccc(Nc2ncc3ccc(-c4ccccc4)c(OC4CCNCC4)c3n2)cc1` [Compound 67, 4-[7-Phenyl-8-(piperidin-4-yloxy)-quinazolin-2-ylamino]-benzenesulfonamide] the EC50 (PC-3 cells) was less than 5 µM, the IC50 [1] was less than 5 µM and the EC50 (A2780 cells) was less than 5 µM. For the same compound, the IC50 (PDK1 kinase) was less than 5 µM.
In the case of `NS(=O)(=O)c1ccc(Nc2ncc3ccc(-c4cccnc4)cc3n2)cc1` [Compound 133, 4-(7-Pyridin-3-yl-quinazolin-2-ylamino)-benzenesulfonamide], the IC50 [1] is reported as less than 5 µM, the EC50 (A2780 cells) is reported as less than 5 µM and the IC50 (PDK1 kinase) is reported as less than 5 µM.
`CC(C)N1CCC(c2c(O)ccc3cnc(Nc4ccc(S(N)(=O)=O)cc4)nc23)CC1` [Compound 134, 4-[7-Hydroxy-8-(1-isopropyl-piperidin-4-yl)-quinazolin-2-ylamino]-benzenesulfonamide] gave an EC50 (PC-3 cells) of less than 5 µM, an IC50 [1] of less than 5 µM and an EC50 (A2780 cells) of less than 5 µM. The IC50 (PDK1 kinase) was less than 5 µM.
With `Cn1cc(-c2ccc3cnc(Nc4ccc(S(N)(=O)=O)cc4)nc3c2)cn1` [Compound 136, 4-[7-(1-Methyl-1H-pyrazol-4-yl)-quinazolin-2-ylamino]-benzenesulfonamide] the EC50 (PC-3 cells) was less than 5 µM, the IC50 [1] was less than 5 µM and the EC50 (A2780 cells) was less than 5 µM. For the same compound, the IC50 (PDK1 kinase) was less than 5 µM.
With `NS(=O)(=O)c1ccc(Nc2ncc3ccc(-c4cccnc4F)cc3n2)cc1` [Compound 137, 4-[7-(2-Fluoro-pyridin-3-yl)-quinazolin-2-ylamino]-benzenesulfonamide] the EC50 (PC-3 cells) was less than 5 µM, the IC50 [1] was less than 5 µM and the EC50 (A2780 cells) was less than 5 µM. For the same compound, the IC50 (PDK1 kinase) was less than 5 µM.
Work on `COc1cncc(-c2ccc3cnc(Nc4ccc(S(N)(=O)=O)cc4)nc3c2)c1` [Compound 138, 4-[7-(5-Methoxy-pyridin-3-yl)-quinazolin-2-ylamino]-benzenesulfonamide] yielded an IC50 [1] of 5 to 10 µM, an EC50 (A2780 cells) of less than 5 µM and an IC50 (PDK1 kinase) of less than 5 µM.

— patent US7932262B2 (Novartis AG, priority 2006, dated 2011)
